Where two headings read alike, the source gives them in different places.

The text below walks through data of patent publication US10774064B2 (Cadent Therapeutics, Inc., priority 2016, dated 2020).

Data set [1] deals with T1, small-conductance Ca2+-activated K+ channels (SK channels, subtype 2) (Homo sapiens, UniProt Q9H2S1).
T1 construct: expressed in transfected cells; host or cells: HEK293
As to the kind of experiment: whole-cell patch-clamp of ionic current through SK2 channels in HEK293 cells (SC100). The format is cell-based. The settings on record: for SC100 (μM): whole-cell patch-clamp, HEK293 cells expressing SK2 channels, concentration that increases the basal current by 100%. Summed up: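 SC100, the concentration doubling basal current (a 100% increase), was taken from SK2 currents recorded by whole-cell patch-clamp in SK2-expressing HEK293 cells.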

Another data set concerns harmaline induced tremor. Kind of data set: harmaline induced tremor in rats. The format is in vivo, Male Sprague Dawley rats. Here is the method: Immediately following harmaline injection, animals were placed in the tremor quantification apparatus and tremor events were quantified for 60 minutes. A tremor event signal was generated when a small metal transmitter band fitted to the right forepaw of the animal moved within the electromagnetic field generated by a loop antenna within the testing apparatus. Outputs from the amplifier were digitized at a sampling rate of 1,000 Hz and the signal was processed and analyzed using LabView software (National Instruments). To minimize signal from ambulatory and grooming behavior, the signal was filtered with a 128-ms nonweigthed moving average filter, and events with amplitudes >0.5 V and lasting >300 ms in duration were counted as a tremor event. Data were analyzed in one-minute bins over the course of the test and presented as the sum of tremor events over the entire 60 minute test.

A short description of data set [2]: brain concentration by mass spectrometry from brains harvested after tremor recording; free brain concentration and % SK2 SC100. The format is in vivo, Male Sprague Dawley rats. To be noted: male, Sprague Dawley, rat, oral, 30 mg/Kg. From the text:
The amount of free compound is then expressed in terms of its potency against the SK2 channel as follows: % SK2 SC100=CFB/SK2 SC100×100, where SK2 SC100 (Table 3, “SK2 SC100”) is the measured value of potency of the compound against SK2 channels and % SK2 SC100 (Table 3, “% SK2 SC100”) is the free brain concentration (CFB) normalized to SK2 SC100. Thus the % SK2 SC100 gives a measure of the degree to which each of the compounds is modulating SK2 channels regardless of differences in potency or exposure. Values are given in […]

Regarding `Cc1ccn(-c2nc(NC3CCC(F)(F)CC3)cc(N3CCOCC3)n2)n1` [Compound 359, N-(4,4-difluorocyclohexyl)-2-(3-methyl-1H-pyrazol-1-yl)-6-morpholinopyrimidin-4-amine], the “Measured SK2 SC100” value in data set [1] (potency against SK2 channels) was determined as 0.5 µM. Moreover, the “inhibition of tremors (sum of tremor events over 60 minutes)” value in the data set with harmaline induced tremor (30 mg/Kg oral, 30 minutes prior to harmaline injection, FIG. 1) is on record as “significant inhibition of tremors”. Further, the “Minimally Efficacious Dose” value with harmaline induced tremor (oral administration 30 minutes prior to harmaline injection, rats) was found to be 30 mg/kg. Also, the concentration at 90 min in data set [2] (CFB=CMB×BFF, read-out: Calculated Free Brain Concentration) was 80 nM; in data set [2] (brains harvested immediately following tremor recording, mass spectrometry, at minimally efficacious dose, read-out: Measured Brain Concentration), 1300 nM. In the case of `FC1(F)CCC(Nc2nccc(-n3ccc(C4CC4)n3)n2)CC1` [NSSy6945, 4-(3-cyclopropyl-1H-pyrazol-1-yl)-N-(4,4-difluorocyclohexyl)pyrimidin-2-amine], in data set [1], the “SC100 (μM)” value is reported as “++ (++ means 200 nM-1000 nM)”. As to `CC(=O)N1CCN(c2cc(-n3nccc3C3CC3)nc(NC3CCC(F)(F)CC3)n2)CC1` [NSSy6957, 1-(4-(6-(5-cyclopropyl-1H-pyrazol-1-yl)-2-((4,4-difluorocyclohexyl)amino)pyrimidin-4-yl)piperazin-1-yl)ethan-1-one], the “SC100 (μM)” value in data set [1] is on record as “+ (+ means >1 uM)”.

Turning to `Cc1ccn(-c2cc(N3CCOC(C(C)(C)O)C3)nc(NC3CCC(F)(F)CC3)n2)n1` (stereo not drawn) [NSSy6958], the “SC100 (μM)” value in data set [1] was “++ (++ means 200 nM-1000 nM)”.

With `CC(=O)N1CCN(c2cc(-n3ccc(O)n3)nc(NC3CCC(F)(F)CC3)n2)CC1` [NSSy6972, 1-(4-(2-((4,4-difluorocyclohexyl)amino)-6-(3-hydroxy-1H-pyrazol-1-yl)pyrimidin-4-yl)piperazin-1-yl) ethan-1-one], the “SC100 (μM)” value in data set [1] is “+ (+ means >1 uM)”. For the compound `COC(=O)N1CCC(c2cc(-n3ccc(C)n3)nc(NC3CCC(F)(F)CC3)n2)CC1` [NSSy6981, methyl 4-(2-((4,4-difluorocyclohexyl)amino)-6-(3-methyl-1H-pyrazol-1-yl)pyrimidin-4-yl)piperidine-1-carboxylate], the “SC100 (μM)” value in data set [1] was “+++ (+++ means <200 nM)”. As for `COC(=O)N1CCC(c2cc(NC3CCC(F)(F)CC3)nc(-n3ccc(C)n3)n2)CC1` [NSSy6982], in data set [1], the “SC100 (μM)” value is given as “+++ (+++ means <200 nM)”. With `Cc1ccn(-c2cc(N3CCOC(CO)C3)nc(NC3CCC(F)(F)CC3)n2)n1` (stereo not drawn) [NSSy6986, (4-(2-((4,4-difluorocyclohexyl)amino)-6-(3-methyl-1H-pyrazol-1-yl)pyrimidin-4-yl)morpholin-2-yl)methanol], the “SC100 (μM)” value in data set [1] was “++ (++ means 200 nM-1000 nM)”. As to `CC(=O)N1CCN(c2cc(-c3cccc(C)n3)nc(NC3CCC(F)(F)CC3)n2)CC1` [NSSy6989, 1-(4-(2-((4,4-difluorocyclohexyl)amino)-6-(6-methylpyridin-2-yl)pyrimidin-4-yl)piperazin-1-yl)ethan-1-one], in data set [1], the “SC100 (μM)” value is “+ (+ means >1 uM)”.

`COc1ccn(-c2nc(NC3CCC(F)(F)CC3)cc(N3CCOCC3)n2)n1` [NSSy6993]: the “SC100 (μM)” value in data set [1] was “++ (++ means 200 nM-1000 nM)”. Take `COc1ccn(-c2nc(C)cc(NC3CCC(F)(F)CC3)n2)n1` [NSSy6994, N-(4,4-difluorocyclohexyl)-2-(3-methoxy-1H-pyrazol-1-yl)-6-methylpyrimidin-4-amine]: the “SC100 (μM)” value in data set [1] is listed as “++ (++ means 200 nM-1000 nM)”.

For `Cc1nn(-c2nc(NC3CCC(F)(F)CC3)cc(N3CCOCC3)n2)c(C)c1F` [NSSy7011], in data set [1], the “SC100 (μM)” value is given as “++ (++ means 200 nM-1000 nM)”. On the same count and under the same terms, then `Cc1cc(NC2CCC(F)(F)CC2)nc(-n2ccc(C3(C)CC3)n2)n1` [NSSy7012], with “+ (+ means >1 uM)”; and `FC1(F)CCC(Nc2cc(N3CCOCC3)nc(-n3ccc(Br)n3)n2)CC1` [NSSy7021], with “+++ (+++ means <200 nM)”. As to `Cc1cc(NC2CCC(F)(F)CC2)nc(-n2ccc(O)n2)n1` [NSSy7027, 1-(4-((4,4-difluorocyclohexyl)amino)-6-methylpyrimidin-2-yl)-1H-pyrazol-3-ol], the “SC100 (μM)” value in data set [1] is recorded as “+ (+ means >1 uM)”. Still for that read-out and setting: then `Cc1cc(NC2CCC(F)(F)CC2)nc(-n2ccc(-c3ccccc3)n2)n1` [NSSy7028], with “+ (+ means >1 uM)”; and `COc1cnc(-n2nc(C)cc2C)nc1NC1CCC(F)(F)CC1` [NSSy7031], with “+ (+ means >1 uM)”.

In the case of `FC1(F)CCC(Nc2cc(N3CCOCC3)nc(-n3ccc(-c4ccccc4)n3)n2)CC1` [NSSy7034], the “SC100 (μM)” value in data set [1] was “+ (+ means >1 uM)”. Turning to `COc1cnc(-n2nc(C)c(F)c2C)nc1NC1CCC(F)(F)CC1` [NSSy7042], the “SC100 (μM)” value in data set [1] was “+ (+ means >1 uM)”. For the compound `Cc1nc(NC2CCC(F)(F)CC2)nc(-n2ccc(C3CC3)n2)n1` [NSSy7043, 4-(3-cyclopropyl-1H-pyrazol-1-yl)-N-(4,4-difluorocyclohexyl)-6-methyl-1,3,5-triazin-2-amine], the “SC100 (μM)” value in data set [1] is “+ (+ means >1 uM)”. In the case of `Cc1cc(C)n(-c2cc(C(O)Cc3cnn(C)n3)cc(NC3CCC(F)(F)CC3)n2)n1` (stereo not drawn) [NSSy7053, 1-(2-((4,4-difluorocyclohexyl)amino)-6-(3,5-dimethyl-1H-pyrazol-1-yl)pyridin-4-yl)-2-(2-methyl-2H-1,2,3-triazol-4-yl) ethan-1-ol], in data set [1], the “SC100 (μM)” value is “++ (++ means 200 nM-1000 nM)”. For `COc1cnc(-n2ccc(C)n2)nc1NC1CCC(F)(F)CC1` [NSSy7055], the “SC100 (μM)” value in data set [1] is given as “+ (+ means >1 uM)”. On to `Cc1cc(NC2CCC(F)(F)CC2)nc(-n2ccc(OC(F)F)n2)n1` [NSSy7059, N-(4,4-difluorocyclohexyl)-2-(3(difluoromethoxy)-1H-pyrazol-1-yl)-6-methylpyrimidin-4-amine], for which the “SC100 (μM)” value in data set [1] is reported as “++ (++ means 200 nM-1000 nM)”. Still for that read-out and setting: then `COc1cc(NC2CCC(F)(F)CC2)nc(-n2nc(C)c(F)c2C)n1` [NSSy7062], with “++ (++ means 200 nM-1000 nM)”; and `COc1cnc(-n2ccc(C3CC3)n2)nc1NC1CCC(F)(F)CC1` [NSSy7063], with “+ (+ means >1 uM)”; and `Cc1ccn(-c2cc(C(O)Cc3cnn(C)n3)cc(NC3CCC(F)(F)CC3)n2)n1` (stereo not drawn) [NSSy7064], with “++ (++ means 200 nM-1000 nM)”. Same read-out and setting: then `Cc1ccn(-c2cc(C(O)Cc3cnnn3C)cc(NC3CCC(F)(F)CC3)n2)n1` (stereo not drawn) [NSSy7065, 1-(2-((4,4-difluorocyclohexyl)amino)-6-(3-methyl-1H-pyrazol-1-yl)pyridin-4-yl)-2-(1-methyl-1H-1,2,3-triazol-5-yl) ethan-1-ol], with “++ (++ means 200 nM-1000 nM)”.

Turning to `Cc1ccn(-c2cc(C(O)Cc3cn(C)nn3)cc(NC3CCC(F)(F)CC3)n2)n1` (stereo not drawn) [NSSy7079, 1-(2-((4,4-difluorocyclohexyl)amino)-6-(3-methyl-1H-pyrazol-1-yl)pyridin-4-yl)-2-(1-methyl-1H-1,2,3-triazol-4-yl)ethan-1-ol], the “SC100 (μM)” value in data set [1] is listed as “++ (++ means 200 nM-1000 nM)”. With `Oc1ccn(-c2nc(NC3CCC(F)(F)CC3)cc(N3CCOCC3)n2)n1` [NSSy7087, 1-(4-((4,4-difluorocyclohexyl)amino)-6-morpholinopyrimidin-2-yl)-1H-pyrazol-3-ol], the “SC100 (μM)” value in data set [1] is given as “+ (+ means >1 uM)”.
